Results on twelve compounds are retold here after patent US11427548B2 (Arvinas Operations, Inc., priority 2015, dated 2022).

The target of this experiment is T1, Androgen Receptor (Homo sapiens, UniProt P10275).
T1 construct: endogenous in cells; host or cells: VCaP cells
T1 sequence (P10275 1-920): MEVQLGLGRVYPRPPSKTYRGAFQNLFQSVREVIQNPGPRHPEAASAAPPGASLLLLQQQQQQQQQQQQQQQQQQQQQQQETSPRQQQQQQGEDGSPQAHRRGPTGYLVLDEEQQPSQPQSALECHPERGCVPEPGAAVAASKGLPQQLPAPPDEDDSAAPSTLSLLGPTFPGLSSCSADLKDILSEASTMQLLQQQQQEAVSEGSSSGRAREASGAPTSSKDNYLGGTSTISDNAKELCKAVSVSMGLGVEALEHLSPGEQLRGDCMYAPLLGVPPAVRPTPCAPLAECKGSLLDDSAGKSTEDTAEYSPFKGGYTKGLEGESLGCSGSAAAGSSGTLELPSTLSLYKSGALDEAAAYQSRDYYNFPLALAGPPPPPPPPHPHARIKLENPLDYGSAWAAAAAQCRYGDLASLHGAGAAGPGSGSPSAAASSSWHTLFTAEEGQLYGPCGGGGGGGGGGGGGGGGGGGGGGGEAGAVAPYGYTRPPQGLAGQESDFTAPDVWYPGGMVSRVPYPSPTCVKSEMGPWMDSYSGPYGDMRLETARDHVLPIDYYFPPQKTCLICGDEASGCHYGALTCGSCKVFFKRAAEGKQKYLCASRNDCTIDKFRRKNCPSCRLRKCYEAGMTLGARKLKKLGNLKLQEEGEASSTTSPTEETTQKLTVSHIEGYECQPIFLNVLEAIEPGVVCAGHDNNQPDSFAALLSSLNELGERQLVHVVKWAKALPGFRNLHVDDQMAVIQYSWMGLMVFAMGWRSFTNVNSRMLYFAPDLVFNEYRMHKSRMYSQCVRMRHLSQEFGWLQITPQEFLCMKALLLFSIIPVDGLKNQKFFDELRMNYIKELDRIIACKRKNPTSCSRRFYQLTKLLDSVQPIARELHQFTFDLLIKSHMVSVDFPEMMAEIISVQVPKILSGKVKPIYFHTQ
As to the kind of experiment: Androgen Receptor ELISA assay (PathScan AR ELISA) in VCaP cells: AR degradation, Dmax and DC50. It is filed as cell-based. Put shortly:
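VCaP cells in phenol red-free RPMI with 5% charcoal-stripped FBS were grown at least 3 days, then given compound as 7 half-log doses in 0.1% DMSO with 0.1 nM R1881 for 24 h. Lysates went into a sandwich AR ELISA with TMB read at 450 nm.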
For orientation: ELISA stands for enzyme-linked immunosorbent assay.

Where [1] appears, read: read-out: VCaP DC50; concentration that caused 50% Androgen Receptor degradation, VCaP cells.
Where [2] appears, read: read-out: VCaP DC50; concentration that caused 50% Androgen Receptor degradation, VCaP cells (Table 32).

Where two headings read alike, the source gives them in different places. Where only a bound is given, the exact number is not on record here.

One may read the Dmax as the largest share of the target that was removed. A word on the DC50: it is the concentration at which degradation of the target reaches its halfway point. Turning to `COc1cc(N2C(=O)C(C)(C)N(c3ccc(OCCCCOCCCOCC(=O)N[C@H](C(=O)N4C[C@H](O)C[C@H]4C(=O)NCc4ccc(-c5cnco5)cc4)C(C)(C)C)c(F)c3)C2=S)ccc1C#N` [Example 49, (2S,4R)-1-[(2S)-2-{2-[3-(4-{4-[3-(4-cyano-3-methoxyphenyl)-5,5-dimethyl-4-oxo-2-sulfanylideneimidazolidin-1-yl]-2-fluorophenoxy}butoxy)propoxy]acetamido}-3,3-dimethylbutanoyl]-4-hydroxy-N-{[4-(1,3-oxazol-5-yl)phenyl]methyl}pyrrolidine-2-carboxamide], the maximal degradation (Dmax) (VCaP, highest percentage of Androgen Receptor degradation observed, VCaP cells; read-out: VCaP Dmax (%)) is 51 to 70%. The half-maximal degradation concentration (DC50) (concentration that caused 50% Androgen Receptor degradation, VCaP cells; read-out: VCaP DC50) is less than 50 nM.

Regarding `Cn1nccc1-c1ccc(CNC(=O)[C@@H]2C[C@@H](O)CN2C(=O)[C@@H](NC(=O)COCCCOCCCCOc2ccc(N3C(=S)N(c4ccc(C#N)c(Cl)c4)C(=O)C3(C)C)cc2F)C(C)(C)C)cc1` [Example 50, (2S,4R)-1-[(2S)-2-{2-[3-(4-{4-[3-(3-chloro-4-cyanophenyl)-5,5-dimethyl-4-oxo-2-sulfanylideneimidazolidin-1-yl]-2-fluorophenoxy}butoxy)propoxy]acetamido}-3,3-dimethylbutanoyl]-4-hydroxy-N-{[4-(1-methyl-1H-pyrazol-5-yl)phenyl]methyl}pyrrolidine-2-carboxamide], the Dmax (VCaP, read-out: VCaP Dmax (%)) is more than 71%. The half-maximal degradation concentration (DC50) under setting [1] was less than 50 nM.

On to `Cc1ncsc1-c1ccc(CNC(=O)[C@@H]2C[C@@H](O)CN2C(=O)[C@@H](NC(=O)COCCCOCCCCOc2ccc(N3C(=S)N(c4ccc(C#N)c(C(F)(F)F)c4)C(=O)C34CCN(C)CC4)cc2)C(C)(C)C)cc1` [Example 51, (2S,4R)-1-[(2S)-2-(2-{3-[4-(4-{3-[4-cyano-3-(trifluoromethyl)phenyl]-8-methyl-4-oxo-2-sulfanylidene-1,3,8-triazaspiro[4.5]decan-1-yl}phenoxy)butoxy]propoxy}acetamido)-3,3-dimethylbutanoyl]-4-hydroxy-N-{[4-(4-methyl-1,3-thiazol-5-yl)phenyl]methyl}pyrrolidine-2-carboxamide], for which the Dmax (VCaP, read-out: VCaP Dmax (%)) was 26 to 50%. Besides, the half-maximal degradation concentration (DC50) under setting [1] was less than 50 nM.

Turning to `Cc1ncsc1-c1ccc(CNC(=O)[C@@H]2C[C@@H](O)CN2C(=O)[C@@H](NC(=O)COCCCCOCCCOc2ccc(N3C(=S)N(c4ccc(C#N)c(C(F)(F)F)c4)C(=O)C3(C)C)cc2F)C(C)(C)C)cc1` [Example 53, (2S,4R)-1-[(2S)-2-(2-{4-[3-(4-{3-[4-cyano-3-(trifluoromethyl)phenyl]-5,5-dimethyl-4-oxo-2-sulfanylideneimidazolidin-1-yl}-2-fluorophenoxy)propoxy]butoxy}acetamido)-3,3-dimethylbutanoyl]-4-hydroxy-N-{[4-(4-methyl-1,3-thiazol-5-yl)phenyl]methyl}pyrrolidine-2-carboxamide], under “VCaP, read-out: VCaP Dmax (%)”, the Dmax was more than 71%. In addition, the half-maximal degradation concentration (DC50) under setting [1] lay in the range of 51 to 500 nM.

Turning to `CC(C)(C)[C@H](NC(=O)COCC#CC#CCOc1ccc(N2C(=S)N(c3ccc(C#N)c(Cl)c3)C(=O)C2(C)C)cc1F)C(=O)N1C[C@H](O)C[C@H]1C(=O)NCc1ccc(-c2cnco2)cc1` [Example 60, (2S,4R)-1-[(2S)-2-{2-[(6-{4-[3-(3-chloro-4-cyanophenyl)-5,5-dimethyl-4-oxo-2-sulfanylideneimidazolidin-1-yl]-2-fluorophenoxy}hexa-2,4-diyn-1-yl)oxy]acetamido}-3,3-dimethylbutanoyl]-4-hydroxy-N-{[4-(1,3-oxazol-5-yl)phenyl]methyl}pyrrolidine-2-carboxamide], the Dmax (VCaP, read-out: VCaP Dmax (%)) was 51 to 70%. For the same compound, the DC50 under setting [1] was in the range of 51 to 500 nM.

For `CC(C)(C)[C@H](NC(=O)COCC#CC#CCOc1ccc(N2C(=S)N(c3ccc(C#N)c(C(F)(F)F)c3)C(=O)C2(C)C)cc1F)C(=O)N1C[C@H](O)C[C@H]1C(=O)NCc1ccc(-c2cnco2)cc1` [Example 61, (2S,4R)-1-[(2S)-2-(2-{[6-(4-{3-[4-cyano-3-(trifluoromethyl)phenyl]-5,5-dimethyl-4-oxo-2-sulfanylideneimidazolidin-1-yl}-2-fluorophenoxy)hexa-2,4-diyn-1-yl]oxy}acetamido)-3,3-dimethylbutanoyl]-4-hydroxy-N-{[4-(1,3-oxazol-5-yl)phenyl]methyl}pyrrolidine-2-carboxamide], the greatest degradation seen (Dmax) (VCaP, read-out: VCaP Dmax (%)) is 51 to 70%. Besides, the 50% degradation concentration (DC50) under setting [1] lay in the range of 51 to 500 nM.

Take `Cc1ncsc1-c1ccc(CNC(=O)[C@@H]2C[C@@H](O)CN2C(=O)[C@@H](NC(=O)CCOCCOc2ccc(-c3ccc(N4C(=S)N(c5ccc(C#N)c(C(F)(F)F)c5)C(=O)C4(C)C)cc3)cn2)C(C)(C)C)cc1` [Example 86]: the greatest degradation seen (Dmax) (VCaP, read-out: VCaP Dmax (%)) was in the range of 26 to 50%. Besides, under setting [2], the DC50 is less than 50 nM.

With `Cc1ncsc1-c1ccc(CNC(=O)[C@@H]2C[C@@H](O)CN2C(=O)[C@@H](NC(=O)CCOCCOc2ccc(-c3ccc(N4C(=S)N(c5ccc(C#N)c(C(F)(F)F)c5)C(=O)C4(C)C)cc3)nc2)C(C)(C)C)cc1` [Example 87], the greatest degradation seen (Dmax) (VCaP, read-out: VCaP Dmax (%)) is 26 to 50%. Further, the 50% degradation concentration (DC50) under setting [2] was less than 50 nM.

Regarding `CC(C)(C)[C@H](NC(=O)COCCCCOc1ccc(-c2ccc(N3C(=S)N(c4ccc(C#N)c(Cl)c4)C(=O)C3(C)C)cc2)nc1)C(=O)N1C[C@H](O)C[C@H]1C(=O)NCc1ccc(-c2cnco2)cc1` [Example 89], the Dmax (VCaP, read-out: VCaP Dmax (%)) is more than 71%. For the same compound, the half-maximal degradation concentration (DC50) under setting [2] is less than 50 nM.

Turning to `CC(C)(C)[C@H](NC(=O)COCCCCOc1ccc(-c2ccc(N3C(=S)N(c4ccc(C#N)c(Cl)c4)C(=O)C3(C)C)cc2)cc1)C(=O)N1C[C@H](O)C[C@H]1C(=O)NCc1ccc(-c2cnco2)cc1` [Example 94, (2S,4R)-1-[(2S)-2-{2-[4-(4-{4-[3-(3-chloro-4-cyanophenyl)-5,5-dimethyl-4-oxo-2-sulfanylideneimidazolidin-1-yl]phenyl}phenoxy)butoxy]acetamido}-3,3-dimethylbutanoyl]-4-hydroxy-N-{[4-(1,3-oxazol-5-yl)phenyl]methyl}pyrrolidine-2-carboxamide], the Dmax (VCaP, read-out: VCaP Dmax (%)) was more than 71%. Moreover, the DC50 under setting [2] was less than 50 nM.

For the compound `Cc1ncsc1-c1ccc([C@H](C)NC(=O)[C@@H]2C[C@@H](O)CN2C(=O)[C@@H](NC(=O)COCCCCOc2ccc(-c3ccc(N4C(=S)N(c5ccc(C#N)c(C(F)(F)F)c5)C(=O)C4(C)C)cc3)cc2)C(C)(C)C)cc1` [Example 95, (2S,4R)-1-[(2S)-2-(2-{4-[4-(4-{3-[4-cyano-3-(trifluoromethyl)phenyl]-5,5-dimethyl-4-oxo-2-sulfanylideneimidazolidin-1-yl}phenyl)phenoxy]butoxy}acetamido)-3,3-dimethylbutanoyl]-4-hydroxy-N-[(1S)-1-[4-(4-methyl-1,3-thiazol-5-yl)phenyl]ethyl]pyrrolidine-2-carboxamide], the Dmax (VCaP, read-out: VCaP Dmax (%)) was more than 71%. Besides, under setting [2], the DC50 is less than 50 nM.

In the case of `CC(C)(C)[C@H](NC(=O)COCCCCOc1ccc(-c2ccc(N3C(=S)N(c4ccc(C#N)c(C(F)(F)F)c4)C(=O)C3(C)C)cc2)cc1)C(=O)N1C[C@H](O)C[C@H]1C(=O)NCc1ccc(-c2cnco2)cc1` [Example 96, (2S,4R)-1-[(2S)-2-(2-{4-[4-(4-{3-[4-cyano-3-(trifluoromethyl)phenyl]-5,5-dimethyl-4-oxo-2-sulfanylideneimidazolidin-1-yl}phenyl)phenoxy]butoxy}acetamido)-3,3-dimethylbutanoyl]-4-hydroxy-N-{[4-(1,3-oxazol-5-yl)phenyl]methyl}pyrrolidine-2-carboxamide], the maximal degradation (Dmax) (VCaP, read-out: VCaP Dmax (%)) is 51 to 70%. For the same compound, the half-maximal degradation concentration (DC50) under setting [2] is less than 50 nM.
